Literature values in patent US20240299268A1, “A COMPOSITION FOR CARING FOR KERATIN MATERIALS” (L'OREAL, priority 2021, published 2024).
Like-named read-outs stand apart in the source and are kept apart here.

- time until decarboxylation (loss in stability, unpleasant odor) when contacting with water (content of ferulic acid no less than 1 wt. %): 30 days
- time until decarboxylation (loss in stability, unpleasant odor) when contacting with water (content of ferulic acid no less than 1.5 wt. %): 15 days
- time until decarboxylation (loss in stability, unpleasant odor) when contacting with water (content of ferulic acid no less than 1.9 wt. %): 7 days
SMILES: COc1cc(/C=C/C(=O)O)ccc1O [Ferulic acid, 4-Hydroxy-3-methoxycinnamic acid]
